Results on 1 compound are retold here after US12144872B1, “Modified nanodelivery system and method for enhanced in vivo medical and preclinical imaging” (Florida A&M University, priority 2012, dated 2024).

The test system of the data set is 4T1-luc tumor models. Description: In vivo bioluminescence/fluorescence imaging and kinetics in luciferase-expressing tumor models. Conditions: mice, 150 mg/kg luciferin solution.

Method: All the cell lines were modified for the luciferase reporter gene expression.
Trypsinization was stopped with medium containing 10% FBS. The cells were centrifuged, and the floating cells in the supernatant were discarded. The cell pellet was resuspended in medium containing 10% FBS and mixed thoroughly. Trypan blue staining was used to determine the number of viable cells. The resuspended cells were centrifuged, and cell dilutions of 2±10^6 cells/100 μl were prepared in growth medium. The 100 μl of cell suspension was injected subcutaneously into the right flank area of each mouse. The mice were randomized into control and treatment groups when xenografts were palpable with a tumor size of 50 mm^3.
The orthotopic tumor model was used to mimic the cancer in humans in athymic nu/nu mice (6-week old). […] Only cell suspensions of >90% viability, as determined by trypan blue exclusion, were used. […]
Nu/Nu mice were anesthetized and tumor cells (2 million per mouse) were injected via tail vein. Only cell suspensions of >90% viability, as determined by trypan blue exclusion, were used. […]
Imaging was performed with an IVIS Spectrum (16). Bioluminescent signals were quantified using Living Image® software (Caliper Life Sciences., Alameda, CA.).
Imaging was performed with an IVIS SpectrumCT (35). Bioluminescent signals were quantified using Living Image® software (Caliper Life Sciences., Alameda, CA.).

As for `O=C(O)[C@H]1CSC(c2nc3ccc(O)cc3s2)=N1` [Free luciferin, luciferin], the “time to clearance from circulation” value is at most 60 min.
